Experimental data reported in PubChem BioAssay AID328 (DTP/NCI, 2004).
Where “and” joins values, the source holds several entries; their conditions need not be identical. Equal values may be shown once. Inconclusive results and toxic doses are left out. How the source made its calls: active means survival T/C of 150% or more; inactive means T/C below 125% in these data. Non-standard residues stand in square brackets, D forms with d. Residues, ends and D or L forms follow the SMILES beside them. ξ: configuration not given here. *: point of attachment. Nphe = O=C(O)CNCc1ccccc1; ξF = NC(Cc1ccccc1)C(=O)O; Ms = CS(=O)(=O)*

System: BDF1 mice, P388 leukemia ip, median survival T/C
Assay: NCI In Vivo Anticancer Drug Screen. Data for tumor model P388 Leukemia (intraperitoneal) in B6D2F1 (BDF1) mice
Conditions: endpoint: median survival time, higher = longer survival
Outline: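 Steps: implant the tumour, treat one group with compound and another with vehicle, record survival, then divide treated by control.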

[1] = dose: 25.0 mg/kg/injection, schedule: Q01DX009 (ip), vehicle: saline with Tween-80
[2] = dose: 100.0 mg/kg/injection, schedule: Q04DX003 (ip), vehicle: other
[3] = dose: 200.0 mg/kg/injection, schedule: Q04DX003 (ip), vehicle: other
[4] = dose: 100.0 mg/kg/injection, schedule: Q01DX009 (ip), vehicle: saline with Tween-80
[5] = dose: 6.25 mg/kg/injection, schedule: Q01DX009 (ip), vehicle: saline
[6] = dose: 100.0 mg/kg/injection, schedule: Q04DX003 (ip), vehicle: saline with Tween-80
[7] = dose: 200.0 mg/kg/injection, schedule: Q01DX009 (ip), vehicle: saline with Tween-80
[8] = dose: 200.0 mg/kg/injection, schedule: Q04DX003 (ip), vehicle: saline with Tween-80
[9] = dose: 400.0 mg/kg/injection, schedule: Q01DX009 (ip), vehicle: saline with Tween-80
[10] = dose: 400.0 mg/kg/injection, schedule: Q04DX003 (ip), vehicle: saline with Tween-80

Measured: T/C

COB(CCCCB(OC)OC)OC
inactive: dose: 100.0 mg/kg/injection, schedule: Q04DX003 (ip), vehicle: saline sonified 90 % of control | dose: 200.0 mg/kg/injection, schedule: Q04DX003 (ip), vehicle: saline sonified 86 % of control | dose: 400.0 mg/kg/injection, schedule: Q04DX003 (ip), vehicle: saline sonified 100 % of control

O=C(c1cc2c3ccccc3ccc2c2ccccc12)C(Br)Br
inactive: [1] 113 % of control

O=[N+]([O-])c1ccc(Nc2ccncc2)cc1
inactive: dose: 100.0 mg/kg/injection, schedule: Q04DX003 (ip), vehicle: saline 104 % of control | dose: 200.0 mg/kg/injection, schedule: Q04DX003 (ip), vehicle: saline 95 % of control | dose: 400.0 mg/kg/injection, schedule: Q04DX003 (ip), vehicle: saline 104 % of control

CC(C)(C)C1COP(=O)(c2ccccc2)N(c2ccccc2)C1 (stereo not drawn)
inactive: dose: 50.0 mg/kg/injection, schedule: Q01DX005 (ip), vehicle: saline with Tween-80 92 % of control | dose: 100.0 mg/kg/injection, schedule: Q01DX005 (ip), vehicle: saline with Tween-80 91 % of control

COc1ccc(C(=O)C(O)c2ccccc2)cc1 (stereo not drawn)
inactive: [2] 100 % of control | [3] 100 % of control

COc1ccc2nc3cc(Cl)ccc3c(NC(C)CCCN(CCCl)CCCl)c2c1 (stereo not drawn)
inactive: dose: 0.17 mg/kg/injection, schedule: Q04DX003 (ip), vehicle: saline 110 % of control | dose: 0.93 mg/kg/injection, schedule: Q01DX009 (ip), vehicle: saline 87 % of control and 100 % of control | dose: 1.0 mg/kg/injection, schedule: Q01DX009 (ip), vehicle: saline 118 % of control | dose: 4.0 mg/kg/injection, schedule: Q01DX009 (ip), vehicle: saline 95 % of control | dose: 62.5 micrograms/kg/injection, schedule: Q01DX009 (ip), vehicle: saline 95 % of control | dose: 125.0 micrograms/kg/injection, schedule: Q01DX009 (ip), vehicle: saline 113 % of control
active: dose: 0.25 mg/kg/injection, schedule: Q01DX009 (ip), vehicle: saline 154 % of control | dose: 0.4 mg/kg/injection, schedule: Q01DX009 (ip), vehicle: saline 162 % of control | dose: 0.62 mg/kg/injection, schedule: Q01DX009 (ip), vehicle: saline 159 % of control and 166 % of control | dose: 500.0 micrograms/kg/injection, schedule: Q01DX009 (ip), vehicle: saline 168 % of control | dose: 1000.0 micrograms/kg/injection, schedule: Q01DX009 (ip), vehicle: saline 150 % of control

CN=S(=O)(OC/C=C/COS(=O)(=NC)c1ccc(C)cc1)c1ccc(C)cc1 (stereo not drawn)
inactive: dose: 12.5 mg/kg/injection, schedule: Q01DX009 (ip), vehicle: saline with Tween-80 95 % of control | [1] 110 % of control | dose: 50.0 mg/kg/injection, schedule: Q01DX009 (ip), vehicle: saline + alcohol 121 % of control | [4] 100 % of control

O=C(O)C(Cc1cccc(F)c1)NC(=O)C(F)(F)F (stereo not drawn)
inactive: dose: 1.56 mg/kg/injection, schedule: Q01DX009 (ip), vehicle: saline 105 % of control | dose: 3.13 mg/kg/injection, schedule: Q01DX009 (ip), vehicle: saline 96 % of control | [5] 104 % of control

CS(=O)(=O)N(CC(=O)NC(Cc1ccccc1)C(=O)O)Cc1ccccc1 (stereo not drawn) (Ms-[Nphe]-[ξF]-OH)
inactive: dose: 12.5 mg/kg/injection, schedule: Q04DX003 (ip), vehicle: sodium bicarbonate 100 % of control | dose: 25.0 mg/kg/injection, schedule: Q01DX009 (ip), vehicle: other 114 % of control | dose: 25.0 mg/kg/injection, schedule: Q04DX003 (ip), vehicle: other 94 % of control | dose: 25.0 mg/kg/injection, schedule: Q04DX003 (ip), vehicle: sodium bicarbonate 106 % of control | dose: 50.0 mg/kg/injection, schedule: Q01DX009 (ip), vehicle: other 100 % of control | dose: 50.0 mg/kg/injection, schedule: Q04DX003 (ip), vehicle: other 103 % of control | dose: 50.0 mg/kg/injection, schedule: Q04DX003 (ip), vehicle: sodium bicarbonate 104 % of control | dose: 100.0 mg/kg/injection, schedule: Q01DX009 (ip), vehicle: other 114 % of control | [2] 106 % of control | dose: 100.0 mg/kg/injection, schedule: Q04DX003 (ip), vehicle: sodium bicarbonate 96 % of control | [3] 104 % of control | dose: 200.0 mg/kg/injection, schedule: Q04DX003 (ip), vehicle: sodium bicarbonate 98 % of control | dose: 400.0 mg/kg/injection, schedule: Q04DX003 (ip), vehicle: other 103 % of control | dose: 400.0 mg/kg/injection, schedule: Q04DX003 (ip), vehicle: sodium bicarbonate 90 % of control

CCOC(=O)C1C(=O)NC(=O)CC1C (stereo not drawn)
inactive: [4] 99 % of control | [6] 96 % of control | [7] 101 % of control | [8] 99 % of control | [9] 105 % of control | [10] 107 % of control

CC(=O)OC1C2(CC3N4C(=O)C5(CO)SSC4(CC31O)C(=O)N5C)OC(C)C(C)(C)C2=O (stereo not drawn)
inactive: dose: 3.13 mg/kg/injection, schedule: Q01DX009 (oral), vehicle: saline 95 % of control | dose: 6.25 mg/kg/injection, schedule: Q01DX009 (oral), vehicle: saline 100 % of control | dose: 12.5 mg/kg/injection, schedule: Q01DX009 (oral), vehicle: saline 103 % of control

COC(=O)C1=COC(C)C(C=O)C1CC(=O)O (stereo not drawn)
active: dose: 50.0 mg/kg/injection, schedule: Q04DX003 (ip), vehicle: saline 172 % of control
inactive: dose: 10.0 mg/kg/injection, schedule: Q04DX003 (ip), vehicle: saline 113 % of control | dose: 22.0 mg/kg/injection, schedule: Q04DX003 (ip), vehicle: saline 122 % of control | dose: 33.0 mg/kg/injection, schedule: Q04DX003 (ip), vehicle: saline 120 % of control | dose: 75.0 mg/kg/injection, schedule: Q04DX003 (ip), vehicle: saline 95 % of control

CSc1ssc(=Nc2ccc(C)cc2)c1-c1ccccc1
inactive: dose: 100.0 mg/kg/injection, schedule: Q04DX003 (ip), vehicle: Klucel (hydroxypropylcellulose) (HPC) 105 % of control | dose: 200.0 mg/kg/injection, schedule: Q01DX009 (ip), vehicle: Klucel (hydroxypropylcellulose) (HPC) 90 % of control | dose: 200.0 mg/kg/injection, schedule: Q04DX003 (ip), vehicle: Klucel (hydroxypropylcellulose) (HPC) 100 % of control | dose: 400.0 mg/kg/injection, schedule: Q01DX009 (ip), vehicle: Klucel (hydroxypropylcellulose) (HPC) 95 % of control | dose: 400.0 mg/kg/injection, schedule: Q04DX003 (ip), vehicle: Klucel (hydroxypropylcellulose) (HPC) 95 % of control

N=C(N)SCCN1C(=O)NC(c2ccccc2)(c2ccccc2)C1=O
inactive: [5] 96 % of control and 99 % of control | dose: 12.5 mg/kg/injection, schedule: Q01DX009 (ip), vehicle: saline 90 % of control and 104 % of control | dose: 25.0 mg/kg/injection, schedule: Q01DX009 (ip), vehicle: saline 93 % of control and 105 % of control | dose: 50.0 mg/kg/injection, schedule: Q01DX009 (ip), vehicle: saline 102 % of control and 105 % of control | dose: 100.0 mg/kg/injection, schedule: Q01DX009 (ip), vehicle: saline 106 % of control and 120 % of control

C=C1C(=O)OC2/C=C(\C)CC/C=C(/C)CC(O)C12 (stereo not drawn)
inactive: dose: 5.0 mg/kg/injection, schedule: Q04DX003 (ip), vehicle: saline with Tween-80 98 % of control | dose: 10.0 mg/kg/injection, schedule: Q04DX003 (ip), vehicle: saline with Tween-80 114 % of control | dose: 20.0 mg/kg/injection, schedule: Q04DX003 (ip), vehicle: saline with Tween-80 98 % of control

Nc1ccc(-c2ccc(N)cc2Br)c(Br)c1
inactive: [6] 100 % of control | [8] 95 % of control | [10] 104 % of control

CC1(C)N=C(N)N=C(N)N1c1cccc(CCCCc2ccc(S(=O)(=O)F)cc2)c1
active: dose: 8.25 mg/kg/injection, schedule: Q01DX009 (ip), vehicle: saline 150 % of control | dose: 18.75 mg/kg/injection, schedule: Q01DX009 (ip), vehicle: saline 150 % of control
inactive: dose: 2.75 mg/kg/injection, schedule: Q01DX009 (ip), vehicle: saline 120 % of control

COC(=O)C(CO)NC(=O)OCc1ccc(OC)cc1 (stereo not drawn)
inactive: dose: 12.5 mg/kg/injection, schedule: Q01DX009 (ip), vehicle: distilled water + Tween-80 87 % of control | dose: 25.0 mg/kg/injection, schedule: Q01DX009 (ip), vehicle: distilled water + Tween-80 89 % of control | dose: 50.0 mg/kg/injection, schedule: Q01DX009 (ip), vehicle: distilled water + Tween-80 104 % of control | dose: 100.0 mg/kg/injection, schedule: Q01DX009 (ip), vehicle: distilled water + Tween-80 114 % of control

O=C(O)CCC(=O)Nc1ccccc1C(F)(F)F
inactive: [4] 100 % of control | [7] 109 % of control | [9] 90 % of control
